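Compound exposure: 48 hours, 5 concentrations, 96-well plates. At the GI50, growth is halved. TGI denotes the concentration required for complete inhibition of growth.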 *1 amine or outer side, *2 acyl side, *3 side chain or, on linkers, in order; H or OH if unused. Where a SMILES comes first, the peptide text is derived from it. The star is where a group is joined. γGlu = O=C(O)[CH](CCC(=O)[*:2])N[*:1]; NHOH = ON* Bounds are passed on as bounds.

Among the test systems are HS 578T breast; MOLT-4 leukemia; SK-MEL-5 melanoma; NCI-H226 lung; SNB-75 CNS; NCI-H522 lung; M14 melanoma; PC-3 prostate.
Experiment in all cases: growth of human tumour cells (NCI), 48 h

Turning to `COc1ccccc1C1C(C#N)=C(N)SC(N)=C1C#N`, the GI50 is greater than 100 µM with HS 578T breast; 45 µM with MOLT-4 leukemia; 90.5 µM in the assay with SK-MEL-5 melanoma; 25.6 µM with NCI-H226 lung; 39.2 µM in the assay on SNB-75 CNS; 29.9 µM with NCI-H522 lung. Besides, the GI50 in the assay on M14 melanoma was 91.6 µM. The TGI in the assay on HS 578T breast was greater than 100 µM; with MOLT-4 leukemia, greater than 100 µM; with SK-MEL-5 melanoma it was greater than 100 µM; in the assay with NCI-H226 lung it was 75.8 µM; with SNB-75 CNS, greater than 100 µM; in the assay on NCI-H522 lung, 76.2 µM. For the same compound, the TGI in the assay on M14 melanoma was greater than 100 µM.
As to `COC(=O)C12CCCN1CCC2`, the TGI in the assay with PC-3 prostate, in the assay with MOLT-4 leukemia, in the assay with SK-MEL-5 melanoma, in the assay with NCI-H226 lung, in the assay on SNB-75 CNS and in the assay on NCI-H522 lung was greater than 100 µM throughout. The same compound had a TGI with M14 melanoma greater than 100 µM.
Turning to `OC1C2CN3CCN(C2)CC1(c1ccccc1)C3` (centres undefined), the TGI in the assay on PC-3 prostate, with HS 578T breast, in the assay on MOLT-4 leukemia, in the assay on SK-MEL-5 melanoma, with NCI-H226 lung and with SNB-75 CNS was greater than 100 µM in each case. This compound also returned a TGI in the assay with NCI-H522 lung greater than 100 µM.
In the case of `CN(C(=O)Cc1cc(Cl)c(Cl)cc1NC(=O)CCCN)[C@H]1CCCC[C@@H]1N1CCCC1`, the TGI with PC-3 prostate is greater than 100 µM; in the assay on MOLT-4 leukemia it was greater than 100 µM; with SK-MEL-5 melanoma, 29.9 µM; in the assay on NCI-H226 lung it was greater than 100 µM; in the assay on NCI-H522 lung it was 29.8 µM; with M14 melanoma it was 34 µM.
Take `Cc1ccc(S(=O)(=O)N(CC(O)COc2ccccc2)c2c(F)c(F)c(F)c(F)c2F)cc1` (centres undefined): the TGI stood at 29.2 µM with PC-3 prostate; 42.6 µM in the assay on HS 578T breast; 56.4 µM in the assay with MOLT-4 leukemia; 25.5 µM in the assay on SK-MEL-5 melanoma; 42.7 µM in the assay with NCI-H226 lung; 36.5 µM in the assay with SNB-75 CNS. The compound further displayed a TGI in the assay with M14 melanoma of 41 µM.
On to `C[C@]12CC[C@H]3[C@@H](CC=C4C[C@@H](N5CCCC5)CC[C@@]43C)[C@@H]1C/C(=C\c1ccc([N+](=O)[O-])cc1)[C@@H]2O`, for which the TGI is 88 µM with PC-3 prostate; 40.3 µM with HS 578T breast; 4.99 µM in the assay with MOLT-4 leukemia; 28.3 µM in the assay with SK-MEL-5 melanoma; 36.2 µM with NCI-H226 lung; 32 µM with NCI-H522 lung. The TGI in the assay with M14 melanoma was found to be 30.2 µM.
In the case of `O=[N+]([O-])C(/C(Cl)=C(/Cl)N1CCOCC1)=C1\Nc2ccccc2O1`, the TGI in the assay on PC-3 prostate, in the assay on HS 578T breast, in the assay with MOLT-4 leukemia, with NCI-H226 lung, in the assay with SNB-75 CNS and in the assay with M14 melanoma was greater than 100 µM in each case.
As for `CCCCCCc1cc2cc(C(=O)Nc3nc(C45CC6CC(CC(C6)C4)C5)cs3)c(=O)oc2cc1O`, the TGI with PC-3 prostate amounted to 34.3 µM; in the assay with HS 578T breast it was 46.9 µM; in the assay with MOLT-4 leukemia, 49.5 µM; in the assay on SK-MEL-5 melanoma it was 24.7 µM; in the assay with NCI-H226 lung, 44.8 µM; with SNB-75 CNS, 32.4 µM. In addition, the TGI in the assay with NCI-H522 lung turned out to be 8.33 µM.
In the case of `O=c1[nH]c2c(C(F)(F)F)c(Cl)c(-c3ccccc3)nc2o1`, the TGI in the assay with PC-3 prostate was 76.2 µM; with HS 578T breast it was greater than 100 µM; with MOLT-4 leukemia, 32.5 µM; with SK-MEL-5 melanoma, greater than 100 µM; with NCI-H226 lung, greater than 100 µM; in the assay on NCI-H522 lung it was greater than 100 µM. This compound yielded a TGI with M14 melanoma greater than 100 µM.
As for `COC(=O)C12C(=O)CC3CCC1C32C(=O)OC` (centres undefined), the TGI with PC-3 prostate, with MOLT-4 leukemia, in the assay with SK-MEL-5 melanoma, in the assay on NCI-H226 lung, in the assay with SNB-75 CNS and with NCI-H522 lung was greater than 100 µM in each case. The compound also came in with a TGI in the assay on M14 melanoma greater than 100 µM.
On to `COc1cc(OC)c(-n2[nH]c(=O)n(C)c2=O)c(OC)c1`, for which the TGI in the assay on PC-3 prostate, in the assay with HS 578T breast, in the assay with MOLT-4 leukemia, with NCI-H226 lung, in the assay on SNB-75 CNS and in the assay on NCI-H522 lung was greater than 100 µM each time. Moreover, the TGI with M14 melanoma is greater than 100 µM.
As for `O=c1[nH]nc(-c2ccc3ccccc3c2)[nH]1`, the TGI is greater than 100 µM in the assay with PC-3 prostate; 24.2 µM in the assay with HS 578T breast; greater than 100 µM in the assay on MOLT-4 leukemia; greater than 100 µM in the assay with NCI-H226 lung; greater than 100 µM with SNB-75 CNS; greater than 100 µM in the assay on NCI-H522 lung. In the assay on M14 melanoma, this compound showed a TGI greater than 100 µM.
On to `NC(CCC(=O)NC(CCC(=O)NO)C(=O)NCC(=O)O)C(=O)O` (centres undefined) (γGlu-Glu(NHOH)-Gly-OH; configuration not given here), for which the TGI in the assay with PC-3 prostate, in the assay on MOLT-4 leukemia, with SK-MEL-5 melanoma, in the assay with NCI-H226 lung, with SNB-75 CNS and with NCI-H522 lung was greater than 100 µM in each case. Also, the TGI with M14 melanoma was greater than 100 µM.
`O=C(CN1CCCCC1)c1ccc2[nH]c(=O)oc2c1`: the TGI in the assay with PC-3 prostate was greater than 100 µM; with HS 578T breast it was greater than 100 µM; in the assay with MOLT-4 leukemia, greater than 100 µM; with SK-MEL-5 melanoma it was greater than 100 µM; with NCI-H226 lung it was greater than 100 µM; with SNB-75 CNS, 87.8 µM. In the assay with M14 melanoma, the TGI is greater than 100 µM.
In the case of `CCCSc1ccc2[nH]c(N3C(=O)/C(=C/c4ccc(O)c(OC)c4)N=C3c3ccccc3)cc2c1`, the TGI with PC-3 prostate was greater than 100 µM; with HS 578T breast it was 14.3 µM; in the assay with MOLT-4 leukemia it was 20.8 µM; in the assay on SK-MEL-5 melanoma it was 16.1 µM; with SNB-75 CNS, greater than 100 µM; with NCI-H522 lung it was 24.3 µM. For the same compound, the TGI in the assay on M14 melanoma is 35.2 µM.
Regarding `COc1ccc(-c2nc(-c3nc4cc(Cl)c(Cl)cc4[nH]3)c3ccccn23)cc1`, the GI50 is 2.58 µM in the assay with PC-3 prostate; 2.68 µM in the assay on HS 578T breast; greater than 100 µM in the assay with MOLT-4 leukemia; 2.91 µM in the assay with SK-MEL-5 melanoma; 1.73 µM in the assay with SNB-75 CNS; 3.37 µM with NCI-H522 lung. Moreover, the GI50 with M14 melanoma is 4.92 µM. In addition, the TGI was greater than 100 µM in the assay on PC-3 prostate; 7.02 µM in the assay with HS 578T breast; greater than 100 µM in the assay with MOLT-4 leukemia; greater than 100 µM in the assay on SK-MEL-5 melanoma; 3.23 µM in the assay on SNB-75 CNS; 82 µM in the assay on NCI-H522 lung. Further, in the assay with M14 melanoma, the TGI was greater than 100 µM.

For the origin of these results see PubChem BioAssay (NCI).
